Literature values as cited in patent US6030942A, “Peptides peptide analogs peptidomimetics and other small molecules useful for inhibiting the activity of ribonucleotide reductase” (The Trustees of the University of Pennsylvania, priority 1998, dated 2000).
Square brackets hold non-standard residues; d marks the D form. Peptide text beside a SMILES is read from it. * marks the point of attachment. Asp(3,3-(CH2)4) = N[C@H](C(=O)O)C1(C(=O)O)CCCC1; Dibenzylacetyl = O=C(C(Cc1ccccc1)Cc1ccccc1)*; Leu(γ-Me)ol = CC(C)(C)C[C@@H](CO)N*; Tle = CC(C)(C)[C@H](N)C(=O)O; NMeV = CN[C@H](C(=O)O)C(C)C; Pyrrolidide = C1CCN(*)C1

Legend:
[1] = system: HSV; settings: cited from earlier work
[2] = system: HSV type 1; settings: cited from earlier work
[3] = system: HSV-1; settings: murine ocular model; cited from earlier work
[4] = system: HSV type 2; settings: cell culture; read-out: EC50, replication of HSV type 2; cited from earlier work

Compound	Inhibition of viral growth in cell culture [1]	Combination with acyclovir in cell culture ([2]; HSV types 1 and 2)	EC50 ([2]; cell culture, read-out: EC50, replication of HSV type 1) [nM]	Severity of HSV-1-induced keratitis [3]	EC50 [4] [µM]
YAGAVVNDL	did not inhibit viral growth in cell culture				
CC(C)[C@@H](C(=O)N[C@H](C(=O)N[C@@H](CC(=O)N1CCCC1)C(=O)N[C@H](C(=O)N[C@H](CO)CC(C)(C)C)C1(C(=O)O)CCCC1)C(C)(C)C)N(C)C(=O)C(Cc1ccccc1)Cc1ccccc1 [BI-LD-1263] (Dibenzylacetyl-[NMeV][Tle]D(Pyrrolidide)[Asp(3,3-(CH2)4)]-{Leu(γ-Me)ol})		synergistic effect	3000	reduces the severity	4
